Test results published in ChEMBL document CHEMBL4420076, “Amylin and calcitonin receptor agonist” (2017).
Numbered stars: 1 amine (or outer) side, 2 acyl side, 3 side chain; on linkers, the order of the positions; unused ones are H or OH. Peptide text beside a SMILES is read from it. * marks the point of attachment. C20 diacid = O=C(O)CCCCCCCCCCCCCCCCCCC(=O)*; γGlu = O=C(O)[C@H](CCC(=O)[*:2])N[*:1]

What was measured:
[1] = target: T1, Amylin receptor AMY3; CALCR/RAMP3 (Homo sapiens, UniProt O60896+P30988); assay: Agonist activity at human amylin receptor expressed in BHK570 cells co-expressing RAMP3 assessed as increase in intracellular cAMP concentration incubated for 3 hrs in absence of albumin by CRE luciferase reporter gene assay; format: functional, cell-based
T1 sequence (P30988 whole entry): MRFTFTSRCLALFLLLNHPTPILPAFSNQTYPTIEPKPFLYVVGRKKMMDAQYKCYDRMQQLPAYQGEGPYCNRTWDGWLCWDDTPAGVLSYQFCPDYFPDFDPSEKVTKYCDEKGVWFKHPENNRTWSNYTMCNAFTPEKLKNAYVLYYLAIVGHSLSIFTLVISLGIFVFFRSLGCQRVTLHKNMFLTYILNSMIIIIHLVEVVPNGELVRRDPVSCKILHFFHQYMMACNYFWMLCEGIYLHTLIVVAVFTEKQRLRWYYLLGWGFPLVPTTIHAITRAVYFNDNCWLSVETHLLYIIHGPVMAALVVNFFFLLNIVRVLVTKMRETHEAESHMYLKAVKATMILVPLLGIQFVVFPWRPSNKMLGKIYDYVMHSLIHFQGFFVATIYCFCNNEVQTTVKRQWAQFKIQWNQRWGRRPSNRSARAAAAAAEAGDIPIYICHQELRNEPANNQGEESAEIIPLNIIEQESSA
T1 sequence (O60896 whole entry): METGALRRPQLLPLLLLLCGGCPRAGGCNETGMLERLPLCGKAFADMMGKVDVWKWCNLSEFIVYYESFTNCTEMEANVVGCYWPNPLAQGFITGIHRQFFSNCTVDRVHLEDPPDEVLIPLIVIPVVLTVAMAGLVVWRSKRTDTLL

Calcitonin receptor [2] = target: T2, Calcitonin receptor (Homo sapiens, UniProt P30988); assay: Agonist activity at human calcitonin receptor expressed in BHK570 cells assessed as increase in intracellular cAMP concentration incubated for 3 hrs in absence of albumin by CRE luciferase reporter gene assay; format: functional, cell-based
T2 sequence (P30988 whole entry): T1 sequence (P30988 whole entry)

[3] = target: T1, Amylin receptor AMY3; CALCR/RAMP3; assay: Agonist activity at human amylin receptor expressed in BHK570 cells co-expressing RAMP3 assessed as increase in intracellular cAMP concentration incubated for 3 hrs in presence of 10% FBS by CRE luciferase reporter gene assay; format: functional, cell-based
Calcitonin receptor [4] = target: T2, Calcitonin receptor; assay: Agonist activity at human calcitonin receptor expressed in BHK570 cells assessed as increase in intracellular cAMP concentration incubated for 3 hrs in presence of 10% FBS by CRE luciferase reporter gene assay; format: functional, cell-based
[5] = Solubility in 100 mM glycylglycine buffer at pH 3.0 incubated for 18 hrs by UPLC analysis; format: physicochemical
[6] = Solubility in 100 mM glycylglycine buffer at pH 4.0 incubated for 18 hrs by UPLC analysis; format: physicochemical
[7] = Solubility in 100 mM bistrispropane buffer at pH 6.0 incubated for 18 hrs by UPLC analysis; format: physicochemical
[8] = Solubility in 100 mM bistrispropane buffer at pH 6.5 incubated for 18 hrs by UPLC analysis; format: physicochemical
[9] = Solubility in 100 mM bistrispropane buffer at pH 7.0 incubated for 18 hrs by UPLC analysis; format: physicochemical
[10] = Solubility in 100 mM bistrispropane buffer at pH 7.5 incubated for 18 hrs by UPLC analysis; format: physicochemical
[11] = Solubility in 100 mM bistrispropane buffer at pH 8.0 incubated for 18 hrs by UPLC analysis; format: physicochemical
[12] = target: T1, Amylin receptor AMY3; CALCR/RAMP3; assay: Displacement of [125I]-labeled rat amylin from human amylin receptor expressed in BHK tkts13 whole cells co-expressing RAMP3 incubated for 60 mins by scintillation proximity assay; format: cell-based

EC50 [1]	EC50 (Calcitonin receptor [2])	EC50 [3]	EC50 (Calcitonin receptor [4])	solubility at 18 h [5]	solubility at 18 h [6]	solubility at 18 h [7]	solubility at 18 h [8]	solubility at 18 h [9]	solubility at 18 h [10]	solubility at 18 h [11]	IC50 [12]	Compound
0.04 nM	0.034 nM	0.122 nM	0.092 nM	≥ 200 µM	≥ 200 µM	≥ 200 µM	≥ 200 µM	≥ 200 µM	≥ 200 µM	≥ 200 µM	0.079 nM	CC(C)C[C@H](NC(=O)CNC(=O)[C@H](CO)NC(=O)[C@H](C)NC(=O)CC[C@H](NC(=O)CCCCCCCCCCCCCCCCCCC(=O)O)C(=O)O)C(=O)N[C@@H](CO)C(=O)N[C@H](C(=O)N[C@@H](C)C(=O)N[C@H](C(=O)N[C@@H](CC(C)C)C(=O)NCC(=O)N[C@@H](CCCNC(=N)N)C(=O)N[C@@H](CC(C)C)C(=O)N[C@@H](CO)C(=O)N[C@@H](CCC(N)=O)C(=O)N[C@@H](CCC(=O)O)C(=O)N[C@@H](CC(C)C)C(=O)N[C@@H](Cc1cnc[nH]1)C(=O)N[C@@H](CCC(=O)O)C(=O)N[C@@H](CC(C)C)C(=O)N[C@@H](CCC(N)=O)C(=O)N[C@H](C(=O)N[C@@H](Cc1ccc(O)cc1)C(=O)N1CCC[C@H]1C(=O)N[C@@H](CCCNC(=N)N)C(=O)N[C@H](C(=O)N[C@@H](CCC(=O)O)C(=O)N[C@H](C(=O)NCC(=O)N[C@@H](CO)C(=O)NCC(=O)N[C@H](C(=O)N[C@@H](Cc1ccc(O)cc1)C(N)=O)[C@@H](C)O)[C@@H](C)O)[C@@H](C)O)[C@@H](C)O)[C@@H](C)O)[C@@H](C)O ({C20 diacid-γGlu}-ASGLSTATLGRLSQELHELQTYPRTETGSGTY-NH2)
	0.052 nM	0.077 nM	0.037 nM	≥ 200 µM	≥ 200 µM	≥ 200 µM	≥ 200 µM	≥ 200 µM	≥ 200 µM	≥ 200 µM	0.244 nM	CC(C)C[C@H](NC(=O)CNC(=O)[C@H](CO)NC(=O)[C@H](C)NC(=O)CC[C@H](NC(=O)CCCCCCCCCCCCCCCCCCC(=O)O)C(=O)O)C(=O)N[C@@H](CO)C(=O)N[C@H](C(=O)N[C@@H](C)C(=O)N[C@H](C(=O)N[C@@H](CC(C)C)C(=O)NCC(=O)N[C@@H](CCCNC(=N)N)C(=O)N[C@@H](CC(C)C)C(=O)N[C@@H](CO)C(=O)N[C@@H](CCC(N)=O)C(=O)N[C@@H](CCC(=O)O)C(=O)N[C@@H](CC(C)C)C(=O)N[C@@H](Cc1cnc[nH]1)C(=O)N[C@@H](CCC(=O)O)C(=O)N[C@@H](CC(C)C)C(=O)N[C@@H](CCC(N)=O)C(=O)N[C@H](C(=O)N[C@@H](Cc1ccc(O)cc1)C(=O)N1CCC[C@H]1C(=O)N[C@@H](CCCNC(=N)N)C(=O)N[C@H](C(=O)N[C@@H](CCC(=O)O)C(=O)N[C@H](C(=O)NCC(=O)N[C@@H](CO)C(=O)N[C@@H](C)C(=O)N[C@H](C(=O)N[C@@H](Cc1ccc(O)cc1)C(N)=O)[C@@H](C)O)[C@@H](C)O)[C@@H](C)O)[C@@H](C)O)C(C)C)[C@@H](C)O ({C20 diacid-γGlu}-ASGLSTAVLGRLSQELHELQTYPRTETGSATY-NH2)
0.01 nM	0.012 nM	0.044 nM	0.05 nM								10.7 nM	CC(C)C[C@H](NC(=O)CC[C@H](NC(=O)CCCCCCCCCCCCCCCCCCC(=O)O)C(=O)O)C(=O)N[C@@H](CO)C(=O)N[C@@H](CCC(N)=O)C(=O)N[C@@H](CC(C)C)C(=O)N[C@@H](CO)C(=O)N[C@H](C(=O)N[C@@H](CC(C)C)C(=O)N[C@H](C(=O)N[C@@H](CC(C)C)C(=O)NCC(=O)N[C@@H](CCCNC(=N)N)C(=O)N[C@@H](CC(C)C)C(=O)N[C@@H](CO)C(=O)N[C@@H](CCC(N)=O)C(=O)N[C@@H](CCCNC(=N)N)C(=O)N[C@@H](CC(C)C)C(=O)N[C@@H](Cc1cnc[nH]1)C(=O)N[C@@H](CCCNC(=N)N)C(=O)N[C@@H](CC(C)C)C(=O)N[C@@H](CCC(N)=O)C(=O)N[C@H](C(=O)N[C@@H](Cc1ccc(O)cc1)C(=O)N1CCC[C@H]1C(=O)N[C@@H](CCCNC(=N)N)C(=O)N[C@H](C(=O)N[C@@H](CCC(N)=O)C(=O)N[C@H](C(=O)NCC(=O)N[C@@H](CO)C(=O)N[C@@H](CCC(N)=O)C(=O)N[C@H](C(=O)N[C@@H](Cc1ccc(O)cc1)C(N)=O)[C@@H](C)O)[C@@H](C)O)[C@@H](C)O)[C@@H](C)O)C(C)C)[C@@H](C)O ({C20 diacid-γGlu}-LSQLSTLVLGRLSQRLHRLQTYPRTQTGSQTY-NH2)
